Where two headings read alike, the source gives them in different places. Marks after values point to notes of the source that are not given here.
How the values were obtained:
[1] = system: calf thymus DNA; assay: Thermal denaturation study, DNA binding affinity (ΔTm); conditions: 1:5 compound to base pair ratio;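 further: shift in midpoint melting temperature of calf thymus DNA thermal denaturation curves caused by compound binding, values averaged over at least two determinations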
Procedure: (§1) The binding affinity was measured by determining the change in the midpoint (Tm) of the thermal denaturation curves of calf thymus DNA as well as poly(dA-dT) at a 1:5 compound to base pair ratio.

[2] = system: T. b. rhodesiense KETRI 243; assay: In vitro trypanocidal activity, bloodforms in HMI-18 medium, Coulter counts; type: cell-based, Trypanosoma brucei rhodesiense; conditions: 48 h exposure
Procedure: (§2) The compounds were tested against trypanosome isolates grown as blood forms in HMI-18 medium containing 20% horse serum in 24 well microplates at 37° C. in 5% CO2. Wells were inoculated with 1×10^5 trypanosomes. […] One-half the volume was replaced daily. Cell counts were made daily with a Coulter Counter, Model Z1 (Beckman Coulter, Miami, Fla., USA). Cells were diluted with Isoton I buffer (Beckman Coulter) and the aperture was standardized at 5.14 μm. Background checks were performed daily on 1:10 dilutions of medium. Counts, normalization, and coincident counts were accounted for by the standardized Coulter analysis program. Occasionally, hemocytometer counts were performed as a check on the validity of the Coulter program. IC50 values were determined after 48 h from semi-log plots and the values are the result of duplicate determinations. Initially a broad concentration curve was used and then a close concentration curve from which IC50 values were determined. Assays were done in duplicate and each point was the average of the two. Control cells grew to 5×10^6/ml.
(§3) Coulter counts were made daily and IC50 values determined after 48 hours exposure.

[3] = system: T. b. brucei Lab 110 EATRO; assay: as above; type: cell-based, Trypanosoma brucei brucei; conditions: 48 h exposure, bloodforms, read-out: Lab 100 EATRO IC50
Procedure: as §2, §3

[4] = system: T. b. brucei Lab 110 EATRO; assay: In vivo efficacy in infected mice; design: species or system Trypanosoma brucei brucei
Procedure: Female Swiss-Webster mice (weight, 20 g) were infected (intraperitoneally) with 2.5×10^5 trypanosomes from rat blood, and the infection was allowed to develop for 24 h before drug treatment was begun. Groups of three mice each were injected (intraperitoneally) with each drug concentration. All of the experiments included a group of untreated controls. […] Parasitemia of animals dying of infection averaged 0.5-1.0×10^9/mL of blood. These infections are very predictable and daily counts were not done because of the labor involved. […] Animals were monitored weekly for parasites in tail vein blood smears. Mice were considered cured if they survived more than 30 days after the death of the last control with no parasites in tail vein blood smears. MSD (mean survival in days) was also recorded for each group. It is the average time of survival of the animals in the group, exclusive of cured animals.
Mice were infected with 250,000 parasites and dosing commenced 24 h. post infection. Mice were separated into groups of three and given single i.p doses for 3 days unless otherwise noted. Infected untreated controls were used for each experiment. Mice were considered cured if surviving more than 30 days beyond death of controls without parasites in tail vein blood smears. MSD, mean survival in days, exclusive of cured animals.

[5] = system: poly(dA-dT); assay: Thermal denaturation study, DNA binding affinity (ΔTm); conditions: 1:5 compound to base pair ratio;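 further: shift in the midpoint temperature of the thermal melting curve of poly(dA-dT), each value the mean of two or more independent determinations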
Procedure: as §1

[6] = Trypanosoma brucei, RHODESIENSE
[7] = mice, 1, 2.5, 5, 10, 15, 25 mg/kg/day i.p. for 3 days (all doses failed to cure)
[8] = mice, 1, 2.5, 5, 10, 15, 25 mg/kg/day i.p. for 3 days (all doses)
[9] = mice, 1 mg/kg/day i.p. for 3 days
[10] = mice, 5 mg/kg/day i.p. for 3 days
[11] = mice, 10 mg/kg/day i.p. for 3 days

| Compound | DNA Binding Δ Tm Calf thymus [1] | IC50 [2] | IC50 [3] | DNA Binding Δ Tm Poly (dA-dT) [5] | other results |
| --- | --- | --- | --- | --- | --- |
| N=C(NO)c1ccc(N2CCN(c3ccc(C(=N)NO)cc3)CC2)cc1 [compound 0125, N,N′-Dihydroxy 4,4′-(1,4-piperazinediyl)bisbenzenecarboxidamide] | 0.8 °C |  |  |  | IC50 [2, 6]: 1920 nM; IC50 ([3]; Trypanosoma brucei): 1020 nM; # Cured/#Treated (%) ([4]; mice, 50 mg/kg/day (po)): 0/3; MSD ([4]; mice, 50 mg/kg/day (po)): 5 days; # Cured/#Treated (%) ([4]; mice, 100 mg/kg/day (po)): 0/3; MSD ([4]; mice, 100 mg/kg/day (po)): 5 days; MSD ([4]; mice, 100 mg/kg/day (split dose, po; 9am and 4 pm)): >30 days |
| N=C(N)c1ccc(NC(=O)CCCCCCCCCCC(=O)Nc2ccc(C(=N)N)cc2)cc1 [compound 0711] |  | 6.6 nM | 8.4 nM |  | # Cured/#Treated (%) [4, 7]: 0/3^a; MSD [4, 8]: 5 to 10.3 days |
| N=C(NO)c1ccc(NC(=O)c2cccc(C(=O)Nc3ccc(C(=N)NO)cc3)c2)cc1 [compound 0323] | 0.6 °C |  |  | 0.1 °C |  |
| CCOC(=O)c1ccc(N2CCN(c3ccc(C(=O)OCC)cc3)CC2)cc1 [compound 0118] | 0.6 °C | 350 nM | 340 nM | 0.0 °C |  |
| O=C(Nc1ccccc1)C(=O)Nc1ccccc1 [compound 0714] |  | 155 nM |  |  |  |
| CCCCCCCCCCCCNC(=N)c1ccc(N2CCN(c3ccc(C(=N)NCCCCCCCCCCCC)cc3)CC2)cc1.Cl.Cl [compound 0136] | 0.6 °C | 125 nM | 660 nM | 0.0 °C |  |
| O=[N+]([O-])c1ccc(N2CCN(c3ccc([N+](=O)[O-])cc3)CC2)cc1 [compound 0119] | 0.1 °C | 250 nM | 137 nM | 0.0 °C |  |
| N=C(NO)c1ccc(NC(=O)c2ccc(C(=O)Nc3ccc(C(=N)NO)cc3)cc2)cc1 [compound 0333] | 0.6 °C |  |  | 0.0 °C |  |
| CN1CCN(C)C1c1ccc(N2CCN(c3ccc(C4N(C)CCN4C)cc3)CC2)cc1 [compound 0108] | 2.4 °C | 2320 nM | 6800 nM | 1.8 °C |  |
| Cl.Cl.c1cc(N2CCCN(c3ccc(C4=NCCCN4)cc3)CC2)ccc1C1=NCCCN1 [732N] | 15.5 °C |  |  | 21.3 °C |  |
| Cl.Cl.c1cc(N2CCN(c3ccc(C4=NCCCN4)cc3)CC2)ccc1C1=NCCCN1 [632N] | 12.2 °C |  |  | 17.9 °C |  |
| NC(=O)c1ccc(NC(=O)CCCCC(=O)Nc2ccc(C(N)=O)cc2)cc1 [compound 0716] |  | 1100 nM | 2800 nM |  |  |
| N#Cc1ccc(N2CCN(c3ccc(C#N)cc3)CC2)cc1 [compound 0101] | 0.1 °C | 1050 nM | 2890 nM | −0.3 °C |  |
| c1cc(N2CCN(c3ccc(C4OCCO4)cc3)CC2)ccc1C1OCCO1 [compound 0111] | −1.2 °C | 2300 nM | 5800 nM | 0.1 °C |  |
| CCCCCCCCCNC(=N)c1ccc(N2CCN(c3ccc(C(=N)NCCCCCCCCC)cc3)CC2)cc1.Cl.Cl [compound 0132] | 1.3 °C | 210 nM | 100 nM | 2.7 °C |  |
| Cl.Cl.c1cc(C2=NCCN2)ccc1CC1CCCN(c2ccc(C3=NCCN3)cc2)C1 (centres unmarked) [4CF] | 9.9 °C | 85 nM | 86 nM | 14.1 °C |  |
| N#Cc1ccc(NC(=O)C(=O)Nc2ccc(C#N)cc2)cc1 [compound 0713] |  | 340 nM | 680 nM |  |  |
| C(=C1CCCN(c2ccc(C3=NCCN3)cc2)C1)c1ccc(C2=NCCN2)cc1.Cl.Cl (mixture of isomers) [3SF] | 12.0 °C | 84 nM | 71 nM | 15.0 °C |  |
| c1ccc(N2CCN(c3ccccc3)C2c2ccc(N3CCN(c4ccc(C5N(c6ccccc6)CCN5c5ccccc5)cc4)CC3)cc2)cc1 [compound 0109] | −1.2 °C | 335 nM | 120 nM | 0.0 °C |  |
| CN=C(N)c1ccc(N2CCN(c3ccc(C(N)=NC)cc3)CC2)cc1 [compound 0112, N,N′-Dimethyl 4,4′-(1,4-piperazinediyl)bisbenzenecarboxidamide] | 15.2 °C | 33 nM | 205 nM | 22.2 °C |  |
| N/C(=N\O)c1ccc(NC(=O)CCCC(=O)Nc2ccc(/C(N)=N/O)cc2)cc1 [compound 0704, N,N′-bis[4-(N-Hydroxyamidino)phenyl]pentanediamide] |  |  |  |  | IC50 [2, 6]: 10000 nM; IC50 ([3]; Trypanosoma brucei): 7300 nM |

| Compound | DNA Binding Δ Tm Calf thymus [1] | IC50 [2] | IC50 [3] | DNA Binding Δ Tm Poly (dA-dT) [5] | other results |
| --- | --- | --- | --- | --- | --- |
| CC(C)CCNC(=N)c1ccc(N2CCN(c3ccc(C(=N)NCCC(C)C)cc3)CC2)cc1.Cl.Cl [compound 0135] | 15.3 °C | 61 nM | 72 nM | 21.8 °C |  |
| CCCCCCCNC(=N)c1ccc(N2CCN(c3ccc(C(=N)NCCCCCCC)cc3)CC2)cc1.Cl.Cl [compound 0133] | 8.7 °C | 57 nM | 100 nM | 8.5 °C |  |
| N=C(N)c1ccc(OCc2cccc(COc3ccc(C(=N)N)cc3)c2)cc1 [compound 0512] | 14.0 °C | 1.5 nM | 0.74 nM |  | # Cured/#Treated (%) [4, 9]: 0/3; MSD [4, 9]: 8 days; # Cured/#Treated (%) [4, 10]: 0/3; MSD [4, 10]: 18 days; MSD [4, 11]: >30 days; MSD ([4]; mice, 15 mg/kg/day i.p. for 3 days): >30 days |
| CCCCCCCCNC(=N)c1ccc(N2CCN(c3ccc(C(=N)NCCCCCCCC)cc3)CC2)cc1.Cl.Cl [compound 0130] | 4.2 °C | 19 nM | 3.65 nM |  | # Cured/#Treated (%) ([4]; mice, 1, 2.5, 5, 10, 15, 20 mg/kg/day i.p. for 3 days (all doses failed to cure)): 0/3^a; MSD ([4]; mice, 1, 2.5, 5, 10, 15, 20 mg/kg/day i.p. for 3 days (all doses)): 5 days |
| N#Cc1ccc(NC(=O)CC(=O)Nc2ccc(C#N)cc2)cc1 [compound 0712] |  | 1600 nM | 5000 nM |  |  |
| N=C(N)c1ccc(OCCCCCOc2ccc(C(=N)N)cc2)cc1 [Pentamidine, reference compound] | 11.1 °C |  |  | 20.6 °C | IC50 [2, 6]: 2.32 nM; # Cured/#Treated (%) ([4]; mice, 1, 2.5, 5, 10, 25 mg/kg/day i.p. for 3 days (all doses cured)): 5/5*; MSD ([4]; mice, 1, 2.5, 5, 10, 25 mg/kg/day i.p. for 3 days (all doses)): >30 days |
| Cl.Cl.N=C(NC1CC1)c1ccc(N2CCN(c3ccc(C(=N)NC4CC4)cc3)CC2)cc1 [63C, N,N′-Dicyclopropyl 4,4′-(1,4-piperazinediyl)bisbenzenecarboxidamide] | 14.5 °C |  |  | 23.9 °C |  |
| Cl.Cl.N=C(NC1CCCCCCC1)c1ccc(N2CCN(c3ccc(C(=N)NC4CCCCCCC4)cc3)CC2)cc1 [compound 0134] | 12.6 °C |  | 2.3 nM | 15.7 °C |  |
| N=C(N)c1ccc(NC(=O)CCC(=O)Nc2ccc(C(=N)N)cc2)cc1 [compound 0707] |  | 2190 nM | 9000 nM |  |  |
| N=C(NO)c1ccc(C(=O)Nc2cccc(NC(=O)c3ccc(C(=N)NO)cc3)c2)cc1 [compound 0343] | −0.3 °C |  |  | 0.1 °C |  |
| O=Cc1ccc(N2CCN(c3ccc(C=O)cc3)CC2)cc1 [compound 0107] | −0.2 °C |  |  | 0.0 °C |  |
| N=C(N)c1ccc(OC(=O)c2ccc(C(=O)Oc3ccc(C(=N)N)cc3)cc2)cc1 [compound 0432] | 9.9 °C | 3100 nM | 4300 nM |  |  |
| N=C(NO)c1ccc(C(=O)Nc2ccc(NC(=O)c3ccc(C(=N)NO)cc3)cc2)cc1 [compound 0353] | 0.4 °C |  |  | 0.1 °C |  |
| CCCCCNC(=N)c1ccc(N2CCN(c3ccc(C(=N)NCCCCC)cc3)CC2)cc1.Cl.Cl [compound 0127] | 16.9 °C |  | 3 nM | 22.5 °C |  |
| N=C(N)c1ccc(NC(=O)CCCCC(=O)Nc2cccc(C(=N)N)c2)cc1 [compound 0721] |  | 7 nM | 12.5 nM |  |  |
| NC(=O)c1cccc(NC(=O)CCCCC(=O)Nc2cccc(C(N)=O)c2)c1 [compound 0717] |  | 1980 nM |  |  | # Cured/#Treated (%) [4, 7]: 0/3^a; MSD [4, 8]: 5 days |
| N=C(N)c1ccc(NC(=O)CCCCCCCC(=O)Nc2ccc(C(=N)N)cc2)cc1 [compound 0708] |  | 240 nM | 400 nM |  |  |
| CCCCCCCCCCNC(=N)c1ccc(N2CCN(c3ccc(C(=N)NCCCCCCCCCC)cc3)CC2)cc1.Cl.Cl [compound 0131] | 1.3 °C | 220 nM | 180 nM |  | # Cured/#Treated (%) [4, 7]: 0/3^a; MSD [4, 8]: 5 days |
| Cl.Cl.N=C(NC1CCC1)c1ccc(N2CCN(c3ccc(C(=N)NC4CCC4)cc3)CC2)cc1 [compound 0143] | 16.4 °C | 51 nM | 6 nM |  | # Cured/#Treated (%) [4, 9]: 0/3; MSD [4, 9]: 5 days; MSD [4, 10]: 11 days; MSD [4, 11]: >30 days |
| N=C(N)c1cccc(NC(=O)CCCCC(=O)Nc2cccc(C(=N)N)c2)c1 [compound 0715] |  | 21 nM | 41 nM |  |  |

Source: patent US20080139534A1, “Bisbenzamidines and bisbenzamidoximes for the treatment of human African trypanosomiasis” (XAVIER UNIVERSITY OF LOUISIANA, priority 2006, published 2008)
